Source: ChEMBL document CHEMBL1150518, “Balanced angiotensin II receptor antagonists. III. The effects of substitution at the imidazole 5-position” (Bioorg Med Chem Lett, 1994)
Each block holds one compound with its values, some of them ahead of it.

Assays:
[1] = molecular target: T1, Type-2 angiotensin II receptor (Homo sapiens, UniProt P50052); assay: Binding affinity for angiotensin II AT-2 receptor
T1 sequence (P50052 whole entry): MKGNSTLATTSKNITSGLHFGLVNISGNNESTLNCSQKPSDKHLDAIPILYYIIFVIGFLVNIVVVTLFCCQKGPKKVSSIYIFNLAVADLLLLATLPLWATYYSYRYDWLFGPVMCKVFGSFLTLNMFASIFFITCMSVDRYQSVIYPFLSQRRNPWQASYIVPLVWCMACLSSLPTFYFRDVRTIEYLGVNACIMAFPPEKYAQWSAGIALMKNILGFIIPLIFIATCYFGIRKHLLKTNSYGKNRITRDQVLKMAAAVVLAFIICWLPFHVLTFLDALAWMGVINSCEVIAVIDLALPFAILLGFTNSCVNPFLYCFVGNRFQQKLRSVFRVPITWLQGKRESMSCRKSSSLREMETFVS

[2] = molecular target: T2, Type-1 angiotensin II receptor (Homo sapiens, UniProt P30556); assay: Binding affinity for Angiotensin II receptor, type 1
T2 sequence (P30556 whole entry): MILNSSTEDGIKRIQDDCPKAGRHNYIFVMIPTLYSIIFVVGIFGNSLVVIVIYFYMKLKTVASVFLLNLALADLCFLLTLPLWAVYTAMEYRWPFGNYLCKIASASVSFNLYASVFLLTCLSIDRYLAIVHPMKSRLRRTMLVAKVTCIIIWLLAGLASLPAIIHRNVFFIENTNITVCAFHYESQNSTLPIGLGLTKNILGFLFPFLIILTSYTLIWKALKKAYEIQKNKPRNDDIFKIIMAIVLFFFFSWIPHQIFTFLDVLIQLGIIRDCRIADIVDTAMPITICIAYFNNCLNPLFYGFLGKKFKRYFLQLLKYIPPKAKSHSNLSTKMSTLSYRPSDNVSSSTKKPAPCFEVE

[3] = test system: Rattus norvegicus; assay: Antihypertensive activity of compound was measured in renal hypertensive rat after iv administration; format: functional
[4] = test system: Rattus norvegicus; assay: Antihypertensive activity of compound was measured in renal hypertensive rat after oral administration; format: functional

SMILES: CCCc1nc(CC)c(C(=O)O)n1Cc1ccc(-c2ccccc2-c2nnn[nH]2)cc1
IC50 [1]: > 1000 nM
IC50 [2]: 6 nM
ED30 [3]: 0.005 mg/kg
ED30 [4]: 0.03 mg/kg

SMILES: CCCc1nc(CC)c(C(=O)OCc2ccccc2Sc2ccccc2)n1Cc1ccc(-c2ccccc2S(=O)(=O)NC(=O)OCCC(C)C)cc1F
IC50 [1]: 2 nM
IC50 [2]: 1 nM

SMILES: CCCc1nc(CC)c(C(=O)OCc2ccccc2S(=O)(=O)c2ccccc2)n1Cc1ccc(-c2ccccc2S(=O)(=O)NC(=O)OCCC(C)C)cc1F
IC50 [1]: 5 nM
IC50 [2]: 0.4 nM

SMILES: CCCc1nc(CC)c(C(=O)OCCCC(=O)c2ccccc2)n1Cc1ccc(-c2ccccc2S(=O)(=O)NC(=O)OCCC(C)C)cc1F
IC50 [1]: 5 nM
IC50 [2]: 0.1 nM

SMILES: CCCc1nc(CC)c(C(=O)OCCCOCc2ccccc2)n1Cc1ccc(-c2ccccc2S(=O)(=O)NC(=O)OCCC(C)C)cc1F
IC50 [1]: 2 nM
IC50 [2]: 0.1 nM

SMILES: CCCc1nc(CC)c(C(=O)OCCCSc2ccccc2)n1Cc1ccc(-c2ccccc2S(=O)(=O)NC(=O)OCCC(C)C)cc1F
IC50 [1]: 2 nM
IC50 [2]: 0.2 nM

Further compounds by falling IC50 [1], results first:

IC50 [1]: 1.6 nM
IC50 [2]: 0.28 nM
SMILES: CCCOC(=O)NS(=O)(=O)c1ccccc1-c1ccc(Cn2c(CCC)nc(CC)c2C(=O)OCc2ccccc2C(=O)c2ccccc2)c(F)c1
ED30 [3]: 0.08 mg/kg
ED30 [4]: 0.7 mg/kg

IC50 [1]: 0.9 nM
IC50 [2]: 0.2 nM
SMILES: CCCCOC(=O)NS(=O)(=O)c1ccccc1-c1ccc(Cn2c(CCC)nc(CC)c2C(=O)OCc2ccccc2C(=O)c2ccccc2)c(F)c1

IC50 [1]: 0.7 nM
IC50 [2]: 0.5 nM
SMILES: CCCc1nc(CC)c(C(=O)OCc2ccccc2C(=O)c2ccccc2)n1Cc1ccc(-c2ccccc2S(=O)(=O)NC(=O)OCCC(C)C)cc1F
ED30 [3]: 0.05 mg/kg
ED30 [4]: 0.9 mg/kg
